Data taken from PubChem BioAssay AID651795 (Broad Institute, 2012).
Values joined by “and” are separate entries in the source; they are usually repeats but may differ in a detail not shown here. Equal values may be shown once. Inconclusive results are not listed. Active and inactive are the calls of the source.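 The calls were made as follows: active = compounds whose fitted curve reaches 40% MLANA inhibition below twice the top dose tried; inconclusive = flat curve with 30 to 70% opposite effect, or poor fit; inactive = the rest.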

Legend:
[1] = MITF target gene MLANA transcript reduction – cell-based, RT-qPCR, SK-MEL-5, dry powder, dose response (AID 651795); conditions: SK-MEL-5 MLANA mRNA qPCR, delta delta Ct, overnight; at 35 µM (top of the series)
[2] = tested on: SK-MEL-5 MLANA mRNA qPCR, delta delta Ct, overnight; experiment: as above

## NC1=C(NS(=O)(=O)c2ccc(Br)s2)C(=O)c2ccccc2C1=O
[1]
  MLANA expression inhibition: 31.6% (inactive)

## COc1ccc(NC2=C(N3CCCCC3)C(=O)c3ccccc3C2=O)cc1
[2]
  AC40: 11000 nM

## Cc1ccc(NC2=CC(=O)c3ccccc3C2=O)cc1
[2]
  AC40: 745 nM

## COC1=C(Nc2ccccc2)C(=O)c2ccccc2C1=O
[2]
  AC40: 492 nM

## CCN1CCN(C2=C(NS(=O)(=O)c3ccc(Br)cc3)C(=O)c3ccccc3C2=O)CC1
[2]
  AC40: 6430 nM

## Cc1nc2ccccc2n1/N=C/c1ccc([N+](=O)[O-])s1
[2]
  AC40: 2750 nM

## O=C1C=C(Nc2ccccc2)C(=O)c2ccccc21
[2]
  AC40: 337 nM and 389 nM

## O=C1C=C(NS(=O)(=O)c2ccccc2)C(=O)c2ccccc21
[2]
  AC40: 1360 nM

## CC(C)N1CCN(C2=C(Nc3ccc(F)cc3F)C(=O)c3ccccc3C2=O)CC1
[2]
  AC40: 3470 nM

## CN1CCN(C2=C(NS(=O)(=O)c3ccc(Br)s3)C(=O)c3ccccc3C2=O)CC1
[2]
  AC40: 2930 nM

## NC1=C(NC(=O)c2ccccc2)C(=O)c2ccccc2C1=O
[2]
  AC40: 1540 nM

## NC1=C(NS(=O)(=O)c2ccccc2)C(=O)c2ccccc2C1=O
[2]
  AC40: 4500 nM

## O=C1C(NS(=O)(=O)c2cccs2)=C(c2ccccc2)C(=O)c2ccccc21
[2]
  AC40: 10800 nM

## O=C1C(Nc2ccc(Cl)cc2)=C(N2CCCC2)C(=O)c2ccccc21
[2]
  AC40: 8640 nM

## C=CCNC1=C(Cl)C(=O)c2ccccc2C1=O
[2]
  AC40: 764 nM

## NC1=C(NS(=O)(=O)c2cccs2)C(=O)c2ccccc2C1=O
[2]
  AC40: 2270 nM

## O=C(NC1=C(Cl)C(=O)c2ccccc2C1=O)c1ccccc1
[2]
  AC40: 227 nM

## O=C1C=C(Nc2ccc([N+](=O)[O-])c(C(F)(F)F)c2)C(=O)c2ccccc21
[2]
  AC40: 119 nM

## NC1=CC(=O)c2ccccc2C1=O
[2]
  AC40: 813 nM

## O=C1C=C(NS(=O)(=O)c2ccc(Br)cc2)C(=O)c2ccccc21
[2]
  AC40: 2440 nM

## CN1CCN(C2=C(Nc3ccc(F)cc3F)C(=O)c3ccccc3C2=O)CC1
[2]
  AC40: 3450 nM

## CCN1CCN(C2=C(NC(=O)c3ccccc3)C(=O)c3ccccc3C2=O)CC1
[2]
  AC40: 1150 nM

## O=C1C(Nc2ccccc2)=C(c2ccccc2)C(=O)c2ccccc21
[2]
  AC40: 7780 nM

## O=C1C(Nc2ccc(F)cc2)=C(N2CCCCC2)C(=O)c2ccccc21
[2]
  AC40: 9240 nM

## NS(=O)(=O)c1ccc(NC2=CC(=O)c3ccccc3C2=O)cc1
[2]
  AC40: 82.4 nM

## CC(C)N1CCN(C2=C(Nc3ccc(F)cc3)C(=O)c3ccccc3C2=O)CC1
[2]
  AC40: 5310 nM

## COC1=C(NS(=O)(=O)c2cccs2)C(=O)c2ccccc2C1=O
[2]
  AC40: 10500 nM

## O=C1C(Nc2ccc(Br)cc2)=C(N2CCCCC2)C(=O)c2ccccc21
[2]
  AC40: 14300 nM

## O=C1C=C(NS(=O)(=O)c2cccs2)C(=O)c2ccccc21
[2]
  AC40: 1980 nM

## CCN1CCN(C2=C(Nc3ccc(F)cc3F)C(=O)c3ccccc3C2=O)CC1
[2]
  AC40: 2480 nM

## COC1=C(NS(=O)(=O)c2ccc(Br)cc2)C(=O)c2ccccc2C1=O
[2]
  AC40: 9120 nM
